Values of other authors, collected in US10485764B2, “Lyophilized pharmaceutical compositions” (Otsuka Pharmaceutical Co., Ltd., priority 2015, dated 2019).

Test system: HDAC
Details: in vitro or in vivo, from literature

| Compound | HDAC inhibition |
| --- | --- |
| O=C(/C=C/c1cccc(C(=O)NO)c1)NO [CBHA, m-carboxy-cinnamic acid bishydroxamic acid] | micromolar concentration or lower |
| C/C=C1\NC(=O)[C@H]2CSSCC/C=C/[C@H](CC(=O)N[C@H](C(C)C)C(=O)N2)OC(=O)[C@H](C(C)C)NC1=O [FR901228] | micromolar concentrations |
| depudecin | micromolar concentrations |
| trichostatin A [TSA] | potent inhibitor of mammalian HDAC |
